In paper PMC11503492, “Activity-Based DNA-Encoded Library Screening for Selective Inhibitors of Eukaryotic Translation” (ACS Central Science, 2024):
Entries after “also recorded” stand apart in the source; their conditions may differ.

What was measured:
[1] = system: RPL27[1:32]-GFP translation; assay: WG IVTT activity assay, RPL27[1:32]-GFP template; assay type: biochemical, wheat germ
From the text: A commercially available wheat germ lysate (WG) IVTT system was employed to assay translation inhibition. Translation activity was detected via a GFP reporter, and the assay was miniaturized to picoliter-scale microfluidic droplets (Figure 1A,B). […] PCSK9 and RPL27 were truncated to the first 33 and 32 amino acids, respectively (PCSK9[1:33] and RPL27[1:32]). The sequences contain distinct PF846 stall sites and were both fused to a GFP reporter. The GFP reporter and a frameshift mutant of PCSK9[1:33] (PCSK9-FS[1:33]), which mutates the nascent chain sequence while maintaining a nearly identical mRNA sequence, were included as negative controls.[13] […] The WG IVTT assay was miniaturized using a previously described microfluidic circuit modified for longer incubation times (Figure S1)[27] using PF846 as a positive control compound, and assay statistical quality was calculated (Z′=0.7) (Figure 1E). […] Assay statistical quality using PC-HygB positive control beads was similarly calculated (Z′ = 0.75, Figure 1H). […]
429 of encoding region identifiers was then determined using a UMI aggregation algorithm; […]
433 manually determined threshold (10) were discarded. […]
440 progress was immediately monitored (λex = 480 nm, λem = 530 nm, 27 °C, 2 h). […]
441 tive activity was calculated using the slope of fluorescence increase over time (at 15–30 […]
Figure S11. […] Compound 8 (black) and PF846 (gray) were analyzed […]

[2] = system: MST1[1:39]-GFP translation; assay: WG IVTT activity assay, MST1[1:39]-GFP template; assay type: biochemical, wheat germ; settings: WG IVTT dose-response
Procedure: page 21: 421 region sequences were matched to an alpha numeric DNA region identifier (11[…], respectively), while allowing a 1-bp mutation per encoding region. 423 No insertions or deletions were tolerated. […] A sum of UMI counts for all remaining unique combinations 429 of encoding region identifiers was then determined using a UMI aggregation algorithm; 430 1 bp mutations were considered the same UMI. Encoding region identifiers were then 431 converted to library BB identifiers per the library design with an associated UMI count. 432 Any encoding region/ bead-specific barcode combinations with a UMI count below a 433 manually determined threshold (10) were discarded. The remaining ”valid beads” were 434 aggregated by cycle 1/2 BB combinations and the number of unique encoding regions 435 observed for each BB combination defined the k-class for that BB combination.S8 436 Microplate IVTT Assays 437 Wheat germ lysate IVTT plate assays were prepared as 5 μL reactions. […] Template (1 μL) was added and reaction 440 progress was immediately monitored (λex = 480 nm, λem = 530 nm, 27 °C, 2 h). […] activity was calculated using the slope of fluorescence increase over time (at 15-30 442 min post reaction initiation) for compound samples relative to that of the DMSO vehicle 443 control. […]

[3] = system: PCSK9[1:33]-GFP in vitro transcription; assay: PCSK9[1:33]-GFP T7 in vitro transcription reaction, agarose gel; assay type: biochemical; settings: PCSK9[1:33]-GFP T7 transcription, 1.5% agarose gel
Procedure: Figure S10. Activity of compounds 8 and 9 on transcription. (A) Screening hits 8 and 9 were analyzed in dose-response IVTT activity assays of PCSK9[1:33]-GFP initiated with DNA (black) and RNA (gray) template. (B) Products of PCSK9[1:33]-GFP T7 transcription reactions incubated with DMSO, screening hits 8 and 9, or PF846 were visualized on a 1.5% agarose gel
(1 picture or pasted object on this page, not shown here)

Row | SMILES | activity on RPL27[1:32]-GFP translation (in words) [1] | activity on MST1[1:39]-GFP translation (in words) [2] | effect on in vitro transcription product (in words) [3]
1 | Cc1cccc2ccnc(N(C(=O)[C@H]3CCCN(C(=O)c4cccc5c(C#N)c[nH]c45)C3)[C@@H]3CCCNC3)c12 [Compound 8] | most active | inactive | 
2 | Cc1cccc2ccnc(N(C(=O)C3CCN(C(=O)c4cccc5c(C#N)c[nH]c45)CC3)[C@@H]3CCCNC3)c12 [Compound 9] |  |  | no visible transcript product; also recorded: completely eliminates RNA yield; also recorded: nonselectively inhibits transcription
